pEC50: −log10 of the molar value. Starred links: 1 amine or outer side, 2 acyl side, 3 side chain; linkers in the order of their positions; H or OH if unused. Non-standard residues stand in square brackets, D forms with d. Residues, ends and D or L forms follow the SMILES beside them. Groups on a side chain read outwards from the residue. *: point of attachment. γGlu = O=C(O)[C@H](CCC(=O)[*:2])N[*:1]; Stearoyl = CCCCCCCCCCCCCCCCCC(=O)*; Palmitoyl = CCCCCCCCCCCCCCCC(=O)*; αMeF = C[C@](N)(Cc1ccccc1)C(=O)O; Myristoyl = CCCCCCCCCCCCCC(=O)*; αMeS = C[C@](N)(CO)C(=O)O; PEG2 = NCCOCCOCCC(=O)O; Aib = CC(C)(N)C(=O)O
Columns and labels:
[1] = target: human glucagon receptor (hGCGR) (Homo sapiens, UniProt P47871); test: cAMP production (HTRF) in CHO cells expressing hGCGR; format: cell-based; design: expressed in transfected cells; settings: Table 6, peptides modified at position 17; cAMP in CHO hGCGR cells; geometric mean; read-out: hGluc-R EC50
Summary of the method: (§1)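 Cells were resuspended in assay buffer at batch-optimized density, typically 1×10^5 cells/mL for hGLP-1R and 2×10^5 cells/mL for hGCGR. After 30 min incubation at room temperature with compound, cAMP was measured by two-step HTRF. EC50 values came from 4-parameter logistic fits of % Delta F.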

[2] = target: human GLP-1 receptor (hGLP-1R) (Homo sapiens, UniProt P43220); test: cAMP production (HTRF) in CHO cells expressing hGLP-1R; format: cell-based; design: expressed in transfected cells; settings: for pEC50: Table 6, peptides modified at position 17, cAMP in CHO hGLP-1R cells, geometric mean, read-out: hGLP-1R EC50; for % Relative Potency Ratio: Table 6, % GLP-1R activity relative to GLP-1 / % GlucR activity relative to glucagon
Summary of the method: as §1

Chain of human glucagon receptor (hGCGR) (P47871 26-477): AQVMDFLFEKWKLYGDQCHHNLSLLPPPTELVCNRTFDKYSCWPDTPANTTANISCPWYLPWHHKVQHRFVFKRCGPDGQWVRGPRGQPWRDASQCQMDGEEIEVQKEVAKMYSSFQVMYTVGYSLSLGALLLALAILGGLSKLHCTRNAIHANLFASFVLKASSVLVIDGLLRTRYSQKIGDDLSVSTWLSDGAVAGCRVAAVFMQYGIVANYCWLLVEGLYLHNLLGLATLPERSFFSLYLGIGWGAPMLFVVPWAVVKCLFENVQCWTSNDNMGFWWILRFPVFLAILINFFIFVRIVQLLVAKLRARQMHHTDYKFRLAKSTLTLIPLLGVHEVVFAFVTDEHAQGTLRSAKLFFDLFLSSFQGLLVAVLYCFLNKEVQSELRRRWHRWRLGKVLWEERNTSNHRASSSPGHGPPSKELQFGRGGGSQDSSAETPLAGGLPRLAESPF
Chain of human GLP-1 receptor (hGLP-1R) (P43220 24-463): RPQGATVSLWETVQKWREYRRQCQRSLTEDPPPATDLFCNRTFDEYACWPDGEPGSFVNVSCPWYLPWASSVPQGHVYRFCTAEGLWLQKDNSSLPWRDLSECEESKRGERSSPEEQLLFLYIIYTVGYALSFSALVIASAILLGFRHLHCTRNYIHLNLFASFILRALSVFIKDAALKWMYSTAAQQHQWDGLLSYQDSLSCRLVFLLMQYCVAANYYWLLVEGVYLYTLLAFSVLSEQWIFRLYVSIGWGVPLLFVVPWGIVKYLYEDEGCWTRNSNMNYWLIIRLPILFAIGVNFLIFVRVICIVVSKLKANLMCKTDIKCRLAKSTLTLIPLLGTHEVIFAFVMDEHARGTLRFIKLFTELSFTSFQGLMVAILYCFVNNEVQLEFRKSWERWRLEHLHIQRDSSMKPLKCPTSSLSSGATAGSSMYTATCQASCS

## CCCCCCCCCCCCCCCCCC(=O)N[C@@H](CCC(=O)N[C@@H](CCC(=O)NCCOCCOCCC(=O)NCCOCCOCCC(=O)NCCCC[C@H](NC(=O)[C@H](CO)NC(=O)[C@H](CC(=O)O)NC(=O)[C@H](CC(C)C)NC(=O)[C@@H](NC(=O)[C@H](CCCCN)NC(=O)[C@H](CO)NC(=O)[C@@H](NC(=O)[C@H](CC(=O)O)NC(=O)[C@H](CO)NC(=O)[C@@H](NC(=O)[C@](C)(Cc1ccccc1)NC(=O)[C@H](CO)NC(=O)CNC(=O)[C@H](CCC(N)=O)NC(=O)C(C)(C)NC(=O)[C@@H](N)Cc1c[nH]cn1)[C@@H](C)O)C(C)C)[C@@H](C)CC)C(=O)N[C@@H](C)C(=O)N[C@@H](C)C(=O)N[C@@H](CCC(N)=O)C(=O)N[C@@H](CC(=O)O)C(=O)N[C@@](C)(Cc1ccccc1)C(=O)N[C@H](C(=O)N[C@@H](CCC(N)=O)C(=O)NC(C)(C)C(=O)N[C@H](C(=O)N[C@H](C(=O)N[C@@H](CC(N)=O)C(=O)N[C@H](C(N)=O)[C@@H](C)O)[C@@H](C)CC)[C@@H](C)CC)C(C)C)C(=O)O)C(=O)O [Peptide 124] (H-H[Aib]QGS[αMeF]TSDVSKILDSK([PEG2-PEG2-γGlu-γGlu-Stearoyl])AAQD[αMeF]VQ[Aib]IINT-NH2; N-terminus assumed)
[1]
  pEC50: 11.01
[2]
  pEC50: 11.89
  % Relative Potency Ratio: 15.2

## CCCCCCCCCCCCCCCC(=O)N[C@@H](CCC(=O)N[C@@H](CCC(=O)NCCOCCOCCC(=O)NCCOCCOCCC(=O)NCCCC[C@H](NC(=O)[C@H](CO)NC(=O)[C@H](CC(=O)O)NC(=O)[C@H](CC(C)C)NC(=O)[C@@H](NC(=O)[C@H](CCCCN)NC(=O)[C@H](CO)NC(=O)[C@@H](NC(=O)[C@H](CC(=O)O)NC(=O)[C@H](CO)NC(=O)[C@@H](NC(=O)[C@](C)(Cc1ccccc1)NC(=O)[C@H](CO)NC(=O)CNC(=O)[C@H](CCC(N)=O)NC(=O)C(C)(C)NC(=O)[C@@H](N)Cc1c[nH]cn1)[C@@H](C)O)C(C)C)[C@@H](C)CC)C(=O)N[C@@H](C)C(=O)N[C@@H](C)C(=O)N[C@@H](CCC(N)=O)C(=O)N[C@@H](CC(=O)O)C(=O)N[C@@](C)(Cc1ccccc1)C(=O)N[C@H](C(=O)N[C@@H](CCC(N)=O)C(=O)NC(C)(C)C(=O)N[C@H](C(=O)N[C@H](C(=O)N[C@@H](CC(N)=O)C(=O)N[C@H](C(N)=O)[C@@H](C)O)[C@@H](C)CC)[C@@H](C)CC)C(C)C)C(=O)O)C(=O)O [Peptide 125] (H-H[Aib]QGS[αMeF]TSDVSKILDSK([PEG2-PEG2-γGlu-γGlu-Palmitoyl])AAQD[αMeF]VQ[Aib]IINT-NH2; N-terminus assumed)
[1]
  pEC50: 11.18
[2]
  % Relative Potency Ratio: 23.0

## CCCCCCCCCCCCCCCCCC(=O)N[C@@H](CCC(=O)NCCOCCOCCC(=O)NCCOCCOCCC(=O)NCCCC[C@H](NC(=O)[C@H](CO)NC(=O)[C@H](CC(=O)O)NC(=O)[C@H](CC(C)C)NC(=O)[C@@H](NC(=O)[C@H](CCCCN)NC(=O)[C@H](CO)NC(=O)[C@@H](NC(=O)[C@H](CC(=O)O)NC(=O)[C@H](CO)NC(=O)[C@@H](NC(=O)[C@](C)(Cc1ccccc1)NC(=O)[C@H](CO)NC(=O)CNC(=O)[C@H](CCC(N)=O)NC(=O)C(C)(C)NC(=O)[C@@H](N)Cc1c[nH]cn1)[C@@H](C)O)C(C)C)[C@@H](C)CC)C(=O)N[C@@H](C)C(=O)N[C@@H](C)C(=O)N[C@@H](CCC(N)=O)C(=O)N[C@@H](CC(=O)O)C(=O)N[C@@](C)(Cc1ccccc1)C(=O)N[C@H](C(=O)N[C@@H](CCC(N)=O)C(=O)NC(C)(C)C(=O)N[C@H](C(=O)N[C@H](C(=O)N[C@@H](CC(N)=O)C(=O)N[C@H](C(N)=O)[C@@H](C)O)[C@@H](C)CC)[C@@H](C)CC)C(C)C)C(=O)O [Peptide 127] (H-H[Aib]QGS[αMeF]TSDVSKILDSK([PEG2-PEG2-γGlu-Stearoyl])AAQD[αMeF]VQ[Aib]IINT-NH2; N-terminus assumed)
[1]
  pEC50: 10.90
[2]
  % Relative Potency Ratio: 25.1

## CCCCCCCCCCCCCCCC(=O)N[C@@H](CCC(=O)NCCOCCOCCC(=O)NCCOCCOCCC(=O)NCCCC[C@H](NC(=O)[C@H](CO)NC(=O)[C@H](CC(=O)O)NC(=O)[C@H](CC(C)C)NC(=O)[C@@H](NC(=O)[C@H](CCCCN)NC(=O)[C@H](CO)NC(=O)[C@@H](NC(=O)[C@H](CC(=O)O)NC(=O)[C@H](CO)NC(=O)[C@@H](NC(=O)[C@](C)(Cc1ccccc1)NC(=O)[C@H](CO)NC(=O)CNC(=O)[C@H](CCC(N)=O)NC(=O)C(C)(C)NC(=O)[C@@H](N)Cc1c[nH]cn1)[C@@H](C)O)C(C)C)[C@@H](C)CC)C(=O)N[C@@H](C)C(=O)N[C@@H](C)C(=O)N[C@@H](CCC(N)=O)C(=O)N[C@@H](CC(=O)O)C(=O)N[C@@](C)(Cc1ccccc1)C(=O)N[C@H](C(=O)N[C@@H](CCC(N)=O)C(=O)NC(C)(C)C(=O)N[C@H](C(=O)N[C@H](C(=O)N[C@@H](CC(N)=O)C(=O)N[C@H](C(N)=O)[C@@H](C)O)[C@@H](C)CC)[C@@H](C)CC)C(C)C)C(=O)O [Peptide 128] (H-H[Aib]QGS[αMeF]TSDVSKILDSK([PEG2-PEG2-γGlu-Palmitoyl])AAQD[αMeF]VQ[Aib]IINT-NH2; N-terminus assumed)
[1]
  pEC50: 11.33
[2]
  % Relative Potency Ratio: 11.8

## CCCCCCCCCCCCCC(=O)N[C@@H](CCC(=O)NCCOCCOCCC(=O)NCCOCCOCCC(=O)NCCCC[C@H](NC(=O)[C@H](CO)NC(=O)[C@H](CC(=O)O)NC(=O)[C@H](CC(C)C)NC(=O)[C@@H](NC(=O)[C@H](CCCCN)NC(=O)[C@H](CO)NC(=O)[C@@H](NC(=O)[C@H](CC(=O)O)NC(=O)[C@H](CO)NC(=O)[C@@H](NC(=O)[C@](C)(Cc1ccccc1)NC(=O)[C@H](CO)NC(=O)CNC(=O)[C@H](CCC(N)=O)NC(=O)C(C)(C)NC(=O)[C@@H](N)Cc1c[nH]cn1)[C@@H](C)O)C(C)C)[C@@H](C)CC)C(=O)N[C@@H](C)C(=O)N[C@@H](C)C(=O)N[C@@H](CCC(N)=O)C(=O)N[C@@H](CC(=O)O)C(=O)N[C@@](C)(Cc1ccccc1)C(=O)N[C@H](C(=O)N[C@@H](CCC(N)=O)C(=O)NC(C)(C)C(=O)N[C@H](C(=O)N[C@H](C(=O)N[C@@H](CC(N)=O)C(=O)N[C@H](C(N)=O)[C@@H](C)O)[C@@H](C)CC)[C@@H](C)CC)C(C)C)C(=O)O [Peptide 129] (H-H[Aib]QGS[αMeF]TSDVSKILDSK([PEG2-PEG2-γGlu-Myristoyl])AAQD[αMeF]VQ[Aib]IINT-NH2)
[1]
  pEC50: 11.39
[2]
  % Relative Potency Ratio: 17.6

## CCCCCCCCCCCCCCCCCC(=O)N[C@@H](CCC(=O)N[C@@H](CCC(=O)NCCOCCOCCC(=O)NCCOCCOCCC(=O)NCCCC[C@H](NC(=O)[C@H](CO)NC(=O)[C@H](CC(=O)O)NC(=O)[C@H](CC(C)C)NC(=O)[C@@H](NC(=O)[C@H](CCCCN)NC(=O)[C@H](CO)NC(=O)[C@@H](NC(=O)[C@H](CC(=O)O)NC(=O)[C@H](CO)NC(=O)[C@@H](NC(=O)[C@](C)(Cc1ccccc1)NC(=O)[C@H](CO)NC(=O)CNC(=O)[C@H](CCC(N)=O)NC(=O)[C@](C)(CO)NC(=O)[C@@H](N)Cc1c[nH]cn1)[C@@H](C)O)C(C)C)[C@@H](C)CC)C(=O)N[C@@H](C)C(=O)N[C@@H](C)C(=O)N[C@@H](CCC(N)=O)C(=O)N[C@@H](CC(=O)O)C(=O)N[C@@](C)(Cc1ccccc1)C(=O)N[C@H](C(=O)N[C@@H](CCC(N)=O)C(=O)NC(C)(C)C(=O)N[C@H](C(=O)N[C@H](C(=O)N[C@@H](CC(N)=O)C(=O)N[C@H](C(N)=O)[C@@H](C)O)[C@@H](C)CC)[C@@H](C)CC)C(C)C)C(=O)O)C(=O)O [Peptide 130] (H-H[αMeS]QGS[αMeF]TSDVSKILDSK([PEG2-PEG2-γGlu-γGlu-Stearoyl])AAQD[αMeF]VQ[Aib]IINT-NH2; N-terminus assumed)
[1]
  pEC50: 10.48
[2]
  pEC50: 11.96
  % Relative Potency Ratio: 59.9

## CCCCCCCCCCCCCCCC(=O)N[C@@H](CCC(=O)N[C@@H](CCC(=O)NCCOCCOCCC(=O)NCCOCCOCCC(=O)NCCCC[C@H](NC(=O)[C@H](CO)NC(=O)[C@H](CC(=O)O)NC(=O)[C@H](CC(C)C)NC(=O)[C@@H](NC(=O)[C@H](CCCCN)NC(=O)[C@H](CO)NC(=O)[C@@H](NC(=O)[C@H](CC(=O)O)NC(=O)[C@H](CO)NC(=O)[C@@H](NC(=O)[C@](C)(Cc1ccccc1)NC(=O)[C@H](CO)NC(=O)CNC(=O)[C@H](CCC(N)=O)NC(=O)[C@](C)(CO)NC(=O)[C@@H](N)Cc1c[nH]cn1)[C@@H](C)O)C(C)C)[C@@H](C)CC)C(=O)N[C@@H](C)C(=O)N[C@@H](C)C(=O)N[C@@H](CCC(N)=O)C(=O)N[C@@H](CC(=O)O)C(=O)N[C@@](C)(Cc1ccccc1)C(=O)N[C@H](C(=O)N[C@@H](CCC(N)=O)C(=O)NC(C)(C)C(=O)N[C@H](C(=O)N[C@H](C(=O)N[C@@H](CC(N)=O)C(=O)N[C@H](C(N)=O)[C@@H](C)O)[C@@H](C)CC)[C@@H](C)CC)C(C)C)C(=O)O)C(=O)O [Peptide 131] (H-H[αMeS]QGS[αMeF]TSDVSKILDSK([PEG2-PEG2-γGlu-γGlu-Palmitoyl])AAQD[αMeF]VQ[Aib]IINT-NH2; N-terminus assumed)
[1]
  pEC50: 10.75
[2]
  % Relative Potency Ratio: 68.9

Reference: US20250353891A1 (MEDIMMUNE LIMITED, priority 2022, published 2025)
